Earlier results as cited in patent publication US11206824B2, “Gas delivery device comprising a gas releasing molecule and a gas permeable membrane” (Julius-Maximilians-Universitaet Wuerzburg, priority 2015, dated 2021).

Tests used:
[1] = system: liver transplantation associated I/R injury; conditions: pre-treatment of donors, inhaled
rodent liver = conditions: 50 μM in modified UW solution, 48 h cold ischemia
rodent kidney grafts = conditions: 1 ml, 100 μmol/L in UW solution, 26 h cold preservation
[2] = system: renal warm ischemia reperfusion injury; conditions: i.v. 20 mg/kgBW, mice

[C-]#[O+] [CO, carbon monoxide]
liver transplantation associated I/R injury [1]: ameliorates

NCC(=O)O.[C-]#[O+].[C-]#[O+].[C-]#[O+].[Cl][Ru] [CORM-3, tricarbonylchloro ruthenium-glycinato]
perfusion flow, intrahepatic resistance and metabolic capacity (rodent liver): improved
cellular and graft injury and survival (rodent kidney grafts): significant impact on decreasing cellular and graft injury, and improving survival

[C-]#[O+].[C-]#[O+].[C-]#[O+].[C-]#[O+].[C-]#[O+].[C-]#[O+].[Cl][Ru][Cl].[Cl][Ru][Cl] [CORM-2, tricarbonyldichlororuthenium(II) dimer]
protection against lethal renal warm ischemia reperfusion injury [2]: almost completely protects
